{"source": "patent US12359238B2", "about": "(priority 2017, dated 2025)", "key": {"[1]": {"target": "GDH-S247PDAz: Burkholderia cepacia FAD-GDH variant S247PrK lacking the MCD domain, clicked to PDAz linker (Burkholderia lata, UniProt Q397F4)", "settings": "read-out: KM^app (electrochemical); glucose; 300 mV vs. Ag/AgCl, 100 mM acetate buffer pH=5.0, RT; non-linear fit", "method": "(§1) The current from each glucose concentration (10 μM-10 mM) was measured in triplicates; curves of the mean currents are presented with standard deviations. […] The current was measured in triplicates and the mean current values were used for the linear regression and are presented with error bars (FIG. 18H);\n(§2) Pyrrolysyl orthogonal translation system (pylOTS) DNA sequence was amplified from the pEVOL plasmid using polymerase chain reaction (PCR) and cloned into the backbone of pec86 plasmid using Gibson's assembly to generate a new plasmid called pec86-pylOTS (FIG. 15A). pylOTS allows the continuous expression of an orthogonal translation system (orthogonal tRNA and aminoacyl tRNA synthetase) for incorporation of PrK (1) using the amber (TAG) stop codon suppression, while the pec86 plasmid is responsible for the continuous expression of E. coli cytochrome c maturation system. […] Four different TAG mutants were planned using site-directed mutagenesis, according to GDH crystal structure. Our guiding rational for mutation sites was to control the enzyme orientation in a manner that will allow proximity of 14 Å or less between the FAD or heme site and the electrode, without interference with the protein structure and correct folding. The sites that were tested were R42TAG and S247TAG, which are in close proximity to the FAD binding-site, while T558TAG (FIG. 11C, right panel) is in a close proximity to the heme domain.\n(§3) The azide in (2) was clicked to the alkyne residue of (FIG. 11B, 1). 3 μM of protein sample was mixed with 400 μM (2), 2 mM tris pH=8.2, 10 mM KCl, 1 mM Cu(I), 1.2 mM THPTA, 2.5 mM NaAsc and 10% Dimethyl sulfoxide (DMSO). The reaction was incubated for 1 h in the dark at room temperature with shaking, then transferred to 4° C. for two days before use."}, "[2]": {"target": "FGM-S247PCA: FGM (Burkholderia cepacia FAD-GDH-MCD) variant S247PrK (S247X, SEQ ID NO: 20), EDC-NHS coupled to PCA linker (Burkholderia lata, UniProt Q397F4)", "settings": "read-out: KM^app (electrochemical); glucose; 300 mV vs. Ag/AgCl, 100 mM acetate buffer pH=5.0, RT; non-linear fit", "method": "as §1, §2, §3"}, "[3]": {"test_system": "FGM-T558PDAz: FGM (Burkholderia cepacia FAD-GDH-MCD) variant T558PrK (T558X, SEQ ID NO: 22), clicked to PDAz linker", "settings": "read-out: KM^app (electrochemical); glucose; 300 mV vs. Ag/AgCl, 100 mM acetate buffer pH=5.0, RT; non-linear fit", "method": "as §1, §2, §3"}, "[4]": {"target": "FGM-S247PDAz: FGM (Burkholderia cepacia FAD-GDH-MCD) variant S247PrK (S247X, SEQ ID NO: 20), clicked to PDAz linker (Burkholderia lata, UniProt Q397F4)", "settings": "read-out: KM^app (electrochemical); glucose; 300 mV vs. Ag/AgCl, 100 mM acetate buffer pH=5.0, RT; non-linear fit", "method": "as §1, §2, §3"}, "[5]": {"target": "T1, FGM (FAD-GDH-MCD): Burkholderia cepacia FAD-GDH alpha subunit fused to minimal cytochrome domain MCR-2 of MamP (magnetoovoid bacterium MO-127), full DNA constru (Burkholderia lata, UniProt Q397F4)", "T1 construct": "gamma co-expressed; E. coli BL21", "format": "biochemical"}}, "data": [{"smiles": "OC[C@H]1OC(O)[C@H](O)[C@@H](O)[C@@H]1O", "note": "(stereo partly drawn) [glucose]", "values": [{"measurement": "Km", "setting": "[1]", "value": "1550 ± 160", "unit": "µM"}, {"measurement": "Km", "setting": "[2]", "value": "1820 ± 180", "unit": "µM"}, {"measurement": "Km", "setting": "[3]", "value": "1580 ± 220", "unit": "µM"}, {"measurement": "Km", "setting": "[4]", "value": "1890 ± 100", "unit": "µM"}, {"measurement": "KM^app value times higher for FGM compared to GDH", "setting": "[5]", "value": "ca. 3 times"}, {"measurement": "catalytic efficiency (k) times higher compared to GDH", "setting": "[5]; FGM compared to GDH, D-glucose", "value": "more than 3 times"}]}]}
